In publication PMC8801796 (Reproductive Toxicology (Elmsford, N.y.), 2022):
Like-named read-outs stand apart in the source and are kept apart here.

Columns and labels:
[1] = Maternal toxicokinetics, rabbit EFD study; assay type: in vivo; settings: for Cmax: female, New Zealand White, in vivo, po; for Cmax / Exposure Margin AUC24 / Exposure Margin Cmax: rabbit; for Mean Systemic Exposure AUC24: maternal rabbit; for Exposure Margin AUC24: relative to predicted human AUC24 68.6 μg h/mL; for Exposure Margin Cmax: relative to predicted human Cmax 4.14 μg/mL
[2] = test system: New Zealand White [Hra:(NZW)SPF] rabbits
monkeys = settings: doses up to 600 mg/kg/day; cited from earlier work
[3] = cited from earlier work
rats = settings: doses up to 1000 mg/kg/day; cited from earlier work
[4] = Maternal toxicokinetics, rat EFD study; assay type: in vivo; settings: for Cmax: female, Wistar Han, in vivo, po; for Cmax / Exposure Margin AUC24 / Exposure Margin Cmax: rat; for Mean Systemic Exposure AUC24: maternal rat; for Exposure Margin AUC24: relative to predicted human AUC24 68.6 μg h/mL; for Exposure Margin Cmax: relative to predicted human Cmax 4.14 μg/mL
in vivo = settings: female, New Zealand White, rabbit, 1000 mg/kg/day
[5] = test system: Wistar Han (Crl:WI[Han]) rats; assay: Rat embryo-fetal development

## CC(C)(C)[C@H](NC(=O)C(F)(F)F)C(=O)N1C[C@H]2[C@@H]([C@H]1C(=O)N[C@H](C#N)C[C@@H]1CCNC1=O)C2(C)C [NMV, nirmatrelvir]
[1]; 100 mg/kg/day
  Cmax: 17000 ± 6100 ng/mL
[1]; 300 mg/kg/day
  Cmax: 42900 ± 11100 ng/mL
[1]; 1000 mg/kg/day
  Cmax: 99600 ± 46500 ng/mL
[1]; GD 19, 100 mg/kg/day
  Mean Systemic Exposure AUC24: 98.7 ± 27.4 μgh^•/mL
  Exposure Margin AUC24: 1.4x
  Exposure Margin Cmax: 4.1x
[1]; GD 19, 300 mg/kg/day
  Mean Systemic Exposure AUC24: 195 ± 56.8 μgh^•/mL
  Exposure Margin AUC24: 2.8x
  Exposure Margin Cmax: 10x
[1]; GD 19, 1000 mg/kg/day
  Mean Systemic Exposure AUC24: 689 ± 206 μgh^•/mL
  Exposure Margin AUC24: 10x
  Exposure Margin Cmax: 24x
[2]; 100 mg/kg
  Corpora lutea: 9.7 ± 1.5
  Fetal weight (g)/Litter: 40.2 ± 3.0 g
  Implantation sites: 8.2 ± 1.7
  Maternal Body Weight (GD 29): 3.6 ± 0.2 kg
  Maternal Body Weight Gain (GD 7−29): 0.5 ± 0.1 kg
  Maternal Food Consumption (GD 7−29): 2983.9 ± 289.5 g
  Post-implantation loss: 3.3 ± 7.7%
  Pre-implantation loss: 14.4 ± 17.9%
[2]; 300 mg/kg
  Corpora lutea: 9.4 ± 2.1
  Fetal weight (g)/Litter: 40.3 ± 4.5 g
  Implantation sites: 8.6 ± 2.3
  Maternal Body Weight (GD 29): 3.6 ± 0.2 kg
  Maternal Body Weight Gain (GD 7−29): 0.4 ± 0.1 kg
  Maternal Food Consumption (GD 7−29): 2908.9 ± 500.1 g
  Post-implantation loss: 5.4 ± 7.4%
  Pre-implantation loss: 9.5 ± 10.2%
[2]; 1000 mg/kg
  Corpora lutea: 9.5 ± 1.7
  Implantation sites: 8.8 ± 1.6
  Maternal Body Weight (GD 29): 3.6 ± 0.2 kg
  Maternal Body Weight Gain (GD 7−29): 0.4 ± 0.1 kg
  Maternal Food Consumption (GD 7−29): 2703.0 ± 514.2 g
  Post-implantation loss: 3.2 ± 4.9%
  Pre-implantation loss: 6.4 ± 11.8%
[2]; 1000 mg/kg, p ≤ 0.01
  Fetal weight (g)/Litter: 37.7 ± 4.4 g
[2]; rabbit, 1000 mg/kg/day
  Mean maternal body weight gains and food consumption versus control: slightly lower than control
[2]; up to 1000 mg/kg/day
  Effects on embryo-fetal viability: no NMV-related effects on embryo-fetal viability
  Effects on external, visceral, or skeletal morphological development: no NMV-related effects on external, visceral, or skeletal morphological development
monkeys
  Adverse findings in 2-week general toxicology study: lack of adverse findings
[3]
  Genetic toxicity: lack of genetic toxicity
rats
  Adverse findings in 2-week general toxicology study: lack of adverse findings
[4]; 100 mg/kg/day
  Cmax: 29000 ± 11000 ng/mL
[4]; 300 mg/kg/day
  Cmax: 43200 ± 14400 ng/mL
[4]; 1000 mg/kg/day
  Cmax: 65400 ± 18700 ng/mL
[4]; GD 17, 100 mg/kg/day
  Mean Systemic Exposure AUC24: 75.5 ± 12.4 μgh^•/mL
  Exposure Margin AUC24: 1.1x
  Exposure Margin Cmax: 7.0x
[4]; GD 17, 300 mg/kg/day
  Mean Systemic Exposure AUC24: 346 ± 92.0 μgh^•/mL
  Exposure Margin AUC24: 5.0x
  Exposure Margin Cmax: 10x
[4]; GD 17, 1000 mg/kg/day
  Mean Systemic Exposure AUC24: 535 ± 330 μgh^•/mL
  Exposure Margin AUC24: 7.8x
  Exposure Margin Cmax: 16x
In vivo
  NOAEL: 300 mg/kg/day
[5]; 100 mg/kg
  Corpora lutea: 11.4 ± 1.1
  Fetal weight (g)/Litter: 5.3 ± 0.3 g
  Implantation sites: 9.9 ± 1.5
  Maternal Food Consumption (GD 6−21): 313.4 ± 32.0 g/day
  Post-implantation loss: 6.5 ± 15.4%
  Pre-implantation loss: 12.8 ± 11.1%
[5]; 300 mg/kg
  Corpora lutea: 11.5 ± 1.5
